“Also recorded” adds a separate entry of the source.
Legend:
[1] = system: DDX3; test: ICD-Helicase luciferase reporter assay (Rac1-FLuc / DvL2-FLuc reporter plasmids) in 293T cells; assay type: cell-based, human; conditions: for luciferase (luminescent) signals of Rac1-FLuc or DvL2-FLuc reporter cells: 293T cells transfected with Rac1-FLuc or DvL2-FLuc reporter plasmids, RK-33 0.5 to 2 μM vs vehicle (DMSO), cycloheximide as inhibitory control
Procedure: A total of 1.2×10^5 sgCTL or sgDDX3X reporter cells (Rac1-FLuc or DvL2-FLuc) were seeded into wells of a 24-well plate to allow cells to adhere for 24 h. Cells were pre-treated with increasing concentrations of a non-specific DDX3 inhibitor, RK-33 (0.5 μM, 1 μM, or 2 μM) for 3 h before transiently expressing the reporter plasmids into sgCTL and sgDDX3X cells for 16 h. Half of the cells were lysed in 1× cell culture lysis buffer (Promega #E1500) and bioluminescence was measured on a white bottom 96-well plate using luciferase assay system (Promega #E4030) by performing 2 sec measurement delay followed by a 10 sec measurement read. The remaining half of the cells were processed on flow-cytometry to determine the percentage of AcGFP^+ cells, to account for variation in transfection efficiency. […] Cycloheximide was used as a positive control for translational inhibition. Data represent three independent experiments and values in the bars are mean±SEM. *, p<0.05; ****, p<0.0001; ns, non-significant.
Cell transfection: 293T cells were seeded in 12 well plate (1.5×10^5 cells per well) a day prior to transfection. Cells were transfected with 1 μg of plasmids using Lipofectamine 2000 (ThermoFisher Scientific #11668019) as per manufacturer's recommendations.
Luciferase assay: Cells were lysed in luciferase cell culture lysis buffer (Promega #E1500) before measuring bioluminescence in a clear bottom 96-well plate using luciferase assay system (Promega #E4030) as per manufacturer's instructions. Relative luciferase activity was determined by subtracting luminescence values to blank and normalizing to untreated samples. Cycloheximide (Sigma #01810) was used as a positive control for translation inhibition at 1 μg/mL and RK-33 (Selleck #S8246) was used as a positive control for chemical inhibition of DDX3 at 3 μM.
The helicase function of the DDX3X and DDX3Y proteins regulates mRNA translation by unwinding of the complex 5′ untranslated region (5′-UTR) secondary structure. Two unique 5′-UTR structures were designed, Rac1 5′-UTR and DvL2 5′-UTR (i.e. short DVL2), known to be regulated by DDX3X and DDX3Y. The 5′-UTR segments were placed upstream of the luciferase gene (from the firefly Photinus pyralis) driven by a constitutively active human cytomegalovirus promoter (FIG. 1A-E). Luciferase emits bioluminescence signals proportional to its levels of expression, which served as a readout for helicase unwinding activity in ICD-Helicase assays. The reporter plasmids (Rac1-Fluc or DvL2-Fluc) were then transiently transfected into 293T cells. A transfection efficiency of more than 80% was obtained in all the experiments (FIG. 2). The selection of this cell line was for three main reasons. […] Second, 293T cells can tolerate knock-out (KO) or nearly complete knock-down of DDX3X expression. […]

[2] = system: 293T cells; test: MTS-based viability assay of reporter cells; assay type: cell-based; conditions: 293T reporter cells (sgCTL and sgDDX3X); RK-33 0.5, 1 or 2 μM; normalized against vehicle (DMSO)
Procedure: (§1) Staurosporine (STS) was used as a positive kill control. […] Cells were treated with STS as a kill control. Bar chart represents mean±SEM of 3 independent experiments.

[3] = system: 293T cells; test: Annexin V-FITC apoptosis/cell death assay; assay type: cell-based, human; conditions: RK-33 treatment
Procedure: as §1

## C[C@@H]1C[C@@H]([C@H](O)CC2CC(=O)NC(=O)C2)C(=O)[C@@H](C)C1 [cycloheximide]
[1]
  luciferase (luminescent) signals of Rac1-FLuc or DvL2-FLuc reporter cells: significantly inhibited

## RK-33
[1]
  luciferase (luminescent) signals of Rac1-FLuc or DvL2-FLuc reporter cells: significantly inhibited; also recorded: dose-dependently inhibited
[1]; sgCTL 293T cells with normal endogenous DDX3, RK-33 0.5, 1 or 2 μM, 3 h pre-treatment
  luciferase activity: dose-dependent reduction in luciferase activity
[1]; sgDDX3X (DDX3X knock-out) 293T cells expressing Rac1-FLuc or DvL2-FLuc construct, RK-33 0.5, 1 or 2 μM
  luciferase activity (response to inhibitor): did not respond
[2]
  cell viability: no major change in cell viability
[3]
  induction of apoptosis/cell death: no major change in cell viability or induction of apoptosis/cell death

— patent publication US20250207173A1, “REPORTER CELL FOR ASSESSING DDX3 HELICASE ACTIVITY” (Nanyang Technological University, priority 2023, published 2025)
